Where a name gives a salt, the structure may show the parent alone.
Target: T1, 5-HT2C receptor (Homo sapiens, UniProt P28335)
T1 construct: β-galactosidase enzyme-complementation fragment (ProLink-type donor); host or cells: U2OS
Test: Functional activity: beta-arrestin2 recruitment to the 5-HT2C receptor in U2OS_HTR2C_β-Arrestin cells (DiscoverX)
Format: cell-based
Settings: for % efficacy / Emax: relative efficacy: response as percentage of response to 10 μM 5-HT or maximal effect induced by 5-HT (defined as 100%); for EC50: U2OS_HTR2C_β-Arrestin cells, 1.5 h incubation, chemiluminescent β-galactosidase complementation readout, read-out: Potency (EC50) in functional assay
Protocol: The functional activity of compounds of formula I was assayed by incubation with U2OS_HTR2C_β-Arrestin cells (DiscoverX, 93-0289C3) to induce beta-arrestin2 recruitment to the 5-HT2C receptor. The agonist-induced recruitment and proximity of the receptor and beta-arrestin2 leads to complementation and formation of active β-galactosidase. The enzyme complementation results in enzyme activity, which is measured following the termination of the agonist incubation using DiscoveRx's detection reagent, which contains a chemiluminescent substrate which produces a high intensity signal. Cells were plated and a medium-change to a 1% serum containing medium was performed 24 h later. The next day, test compounds were added and incubated for 1.5 h before addition of detection reagent.
The response produced was measured and compared with the response produced by 10 [mu]M 5-HT or the maximal effect induced by 5-HT (defined as 100%) to which it was expressed as a percentage response (relative efficacy). Dose response curves were constructed using Graphpad Prism (Graph Software Inc.) or using in house adapted software using a 4 parameter dose response model with variable slope (fit=(Bottom+(Top−Bottom)/(1+10^((Log EC50−x)*HillSlope))res=(y−fit)). Results are compiled in the table below.

T1 sequence (P28335 33-458): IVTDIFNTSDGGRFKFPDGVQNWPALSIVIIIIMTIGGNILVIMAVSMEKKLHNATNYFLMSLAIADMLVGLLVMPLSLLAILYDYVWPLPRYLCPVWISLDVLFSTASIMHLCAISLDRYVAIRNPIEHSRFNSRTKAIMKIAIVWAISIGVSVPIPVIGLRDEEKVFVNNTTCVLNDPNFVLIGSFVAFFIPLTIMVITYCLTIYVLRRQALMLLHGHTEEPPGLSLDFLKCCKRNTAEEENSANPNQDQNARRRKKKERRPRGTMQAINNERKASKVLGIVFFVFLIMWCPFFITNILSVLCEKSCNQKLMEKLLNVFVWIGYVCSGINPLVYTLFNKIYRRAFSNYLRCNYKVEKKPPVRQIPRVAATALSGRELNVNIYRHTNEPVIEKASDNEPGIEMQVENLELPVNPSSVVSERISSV
T1 sequence (P32121 whole entry partner, the tested form may be a part): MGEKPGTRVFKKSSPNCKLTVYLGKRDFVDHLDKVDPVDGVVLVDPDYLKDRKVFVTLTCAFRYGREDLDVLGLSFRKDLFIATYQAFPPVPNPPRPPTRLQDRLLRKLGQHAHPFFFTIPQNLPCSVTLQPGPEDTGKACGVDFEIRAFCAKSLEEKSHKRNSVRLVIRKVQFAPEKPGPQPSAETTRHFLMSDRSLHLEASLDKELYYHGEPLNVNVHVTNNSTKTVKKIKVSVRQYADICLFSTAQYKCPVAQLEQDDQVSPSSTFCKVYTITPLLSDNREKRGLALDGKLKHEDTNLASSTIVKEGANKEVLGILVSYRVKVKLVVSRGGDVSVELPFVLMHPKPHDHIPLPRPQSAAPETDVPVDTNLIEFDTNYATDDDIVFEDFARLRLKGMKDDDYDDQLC

SMILES	% efficacy	EC50	Emax
CCC1(C)CCN2CCNCc3cccc1c32.O=C(O)C(F)(F)F (single isomer, unassigned) [Example 54, One enantiomer of 8-ethyl-8-methyl-2,3,4,6,7,8-hexahydro-1H-[1,4]diazepino[6,7,1-ij]-quinoline, trifluoroacetic acid]	24%	200 to 1000 nM	–
CCC1(C)CCN2CCNCc3cccc1c32.O=C(O)C(F)(F)F (single isomer, unassigned) [Example 55, Other enantiomer of 8-ethyl-8-methyl-2,3,4,6,7,8-hexahydro-1H-[1,4]diazepino[6,7,1-ij]quinoline, trifluoroacetic acid]	26%	200 to 1000 nM	–
c1cc2c3c(c1)N1CCC[C@@H]1CN3CCNC2 [Example 16, (R)-5,6,7,9,9a,10,11,12-Octahydro-4H-[1,4]diazepino[1,7,6-de]pyrrolo[1,2-a]quinoxaline (2,2,2-trifluoroacetate)]	–	–	55%
c1cc2c3c(c1)N1CCC[C@H]1CN3CCNC2 [Example 17, (S)-5,6,7,9,9a,10,11,12-Octahydro-4H-[1,4]diazepino[1,7,6-de]pyrrolo[1,2-a]quinoxaline (2,2,2-trifluoroacetate)]	–	–	84%
CC1(C)CCN2CCNCc3cc(Cl)cc1c32 [Example 19, 10-Chloro-8,8-dimethyl-2,3,4,6,7,8-hexahydro-1H-[1,4]diazepino [6,7,1-ij]quinoline (2,2,2-trifluoroacetate)]	–	–	25%
c1cc2c3c(c1)C1(CCC1)CCN3CCNC2 [Example 25, 1′,2′,3′,4′,6′,7′-Hexahydrospiro[cyclobutane-1,8′-[1,4]diazepino [6,7,1-ij]quinoline], hydrochloride]	–	–	90%
Fc1ccc2c3c1C1(CCC1)CCN3CCNC2 [Example 26, 9′-Fluoro-1′,2′,3′,4′,6′,7′-hexahydrospiro[cyclobutane-1,8′-[1,4]diazepino[6,7,1-ij]quinoline], hydrochloride]	–	–	107%
c1cc2c3c(c1)N(C1CCC1)CCN3CCNC2 [Example 33, 1-Cyclobutyl-2,3,5,6,7,8-hexahydro-1H-[1,4]diazepino[1,7,6-de]quinoxaline 2,2,2-trifluoroacetate]	–	200 to 1000 nM	78%
c1cc2c3c(c1)N(C1COC1)CCN3CCNC2 [Example 35, 1-(Oxetan-3-yl)-2,3,5,6,7,8-hexahydro-1H-[1,4]diazepino[1,7,6-de]quinoxaline 2,2,2-trifluoroacetate]	–	20 to 200 nM	112%
c1cc2c3c(c1)N(CC1CC1)CCN3CCNC2 [Example 36, 1-(Cyclopropylmethyl)-2,3,5,6,7,8-hexahydro-1H-[1,4]diazepino[1,7,6-de]quinoxaline]	–	200 to 1000 nM	31%
c1cc2c3c(c1)N(CC1CCCC1)CCN3CCNC2 [Example 37, 1-(Cyclopentylmethyl)-2,3,5,6,7,8-hexahydro-1H-[1,4]diazepino[1,7,6-de]quinoxaline]	–	200 to 1000 nM	21%
c1cc2c3c(c1)N(C1CC1)CCN3CCNC2 [Example 40, 1-Cyclopropyl-2,3,5,6,7,8-hexahydro-1H-[1,4]diazepino[1,7,6-de]quinoxaline]	–	20 to 200 nM	131%
c1cc2c3c(c1)N(C1CCCC1)CCN3CCNC2 [Example 41, 1-Cyclopentyl-2,3,5,6,7,8-hexahydro-1H-[1,4]diazepino[1,7,6-de]quinoxaline]	–	200 to 1000 nM	75%
CC1CNCc2cccc3c2N1CCN3C1CC1 (stereo not drawn) [Example 42, 1-Cyclopropyl-5-methyl-2,3,5,6,7,8-hexahydro-1H-[1,4]diazepino[1,7,6-de]quinoxaline]	–	< 20 nM	163%
CC1CNCc2cccc3c2N1CCN3C1CCCC1 (stereo not drawn) [Example 43, 1-Cyclopentyl-5-methyl-2,3,5,6,7,8-hexahydro-1H-[1,4]diazepino[1,7,6-de]quinoxaline]	–	200 to 1000 nM	59%
c1cc2c3c(c1)N1CCCCCC1CN3CCNC2 (stereo not drawn) [Example 44, 5,6,7,9,9a,10,11,12,13,14-decahydro-4H-azepino[1,2-a][1,4]diazepino[1,7,6-de]quinoxaline]	–	20 to 200 nM	55%
CC1CNCc2cccc3c2N1CC1CCCN31 (stereo not drawn) [Example 45, 7-Methyl-5,6,7,9,9^a,10,11,12-octahydro-4H-[1,4]diazepino[1,7,6-de]pyrrolo[1,2-a]quinoxaline]	–	20 to 200 nM	77%
CC1CNCc2ccc(F)c3c2N1CC1CCCN31 (stereo not drawn) [Example 46, 1-Fluoro-7-methyl-5,6,7,9,9^a,10,11,12-octahydro-4H-[1,4]diazepino[1,7,6-de]pyrrolo[1,2-a]quinoxaline]	–	200 to 1000 nM	71%
CC1(C)CCN2CCNCc3c(F)ccc1c32 [Example 49, 11-Fluoro-8,8-Dimethyl-2,3,4,6,7,8-hexahydro-1H-[1,4]diazepino[6,7,1-ij]quinoline]	–	200 to 1000 nM	78%
CC1CNCc2cccc3c2N1CCC3(C)C (stereo not drawn) [Example 51, 4,8,8-Trimethyl-2,3,4,6,7,8-hexahydro-1H-[1,4]diazepino[6,7,1-ij]quinoline 2,2,2-trifluoroacetate]	–	20 to 200 nM	102%
CC1CNCc2cccc3c2N1CCC31CCC1 (stereo not drawn) [Example 56, 4-Methyl-1,2,3,4,6,7-hexahydrospiro[[1,4]diazepino[6,7,1-ij]quinoline-8,1′-cyclobutane]]	–	< 20 nM	124%
Fc1ccc2c3c1N1CCCC1CN3CCNC2 (stereo not drawn) [Example 57, 1-Fluoro-5,6,7,9,9a,10,11,12-octahydro-4H-[1,4]diazepino[1,7,6-de]pyrrolo[1,2-a]quinoxaline, trifluoroacetic acid]	–	200 to 1000 nM	35%
Cc1ccc2c3c1CNCCN3CCC21CCC1 [Example 66, 11-Methyl-1,2,3,4,6,7-hexahydrospiro[[1,4]diazepino[6,7,1-ij]quinoline-8,1′-cyclobutane], 2,2,2-trifluoroacetic acid]	–	200 to 1000 nM	53%
Cc1ccc2c3c1C1(CCC1)CCN3CCNC2 [Example 67, 9-Methyl-1,2,3,4,6,7-hexahydrospiro[[1,4]diazepino[6,7,1-ij]quinoline-8,1′-cyclobutane], trifluoroacetic acid]	–	< 20 nM	116%

The remaining lines, values ahead:

% efficacy	EC50	Emax	SMILES
40%	–	–	CC1(C(F)(F)F)CCN2CCNCc3cccc1c32 (single isomer, unassigned) [Example 8, 8-Methyl-8-(trifluoromethyl)-2,3,4,6,7,8-hexahydro-1H-[1,4]diazepino [6,7,1-ij]quinoline]
61%	–	–	CC1(C(F)(F)F)CCN2CCNCc3cccc1c32 (single isomer, unassigned) [Example 9, 8-Methyl-8-(trifluoromethyl)-2,3,4,6,7,8-hexahydro-1H-[1,4]diazepino [6,7,1-ij]quinoline]
87%	–	–	CC1CN2CCNCc3cccc(c32)C1(C)C (single isomer, unassigned) [Example 27, Enantiomer of 7,8,8-trimethyl-1,2,3,4,7,8-hexahydro-6H-[1,4]diazepino[6,7,1-ij]quinoline]]
55%	–	–	CC1CN2CCNCc3cccc(c32)C1(C)C (single isomer, unassigned) [Example 28, Enantiomer of 7,8,8-trimethyl-1,2,3,4,7,8-hexahydro-6H-[1,4]diazepino[6,7,1-ij]quinoline]]
–	–	71%	CC1(C)CCN2CCNCc3cccc1c32 [Example 1, 8,8-Dimethyl-2,3,4,6,7,8-hexahydro-1H-[1,4]diazepino[6,7,1-ij]quinoline]
–	–	63%	c1cc2c3c(c1)C1(CCCC1)CCN3CCNC2 [Example 6, 1,2,3,4,6,7-Hexahydrospiro[[1,4]diazepino [6,7,1-ij]quinoline-8,1′-cyclopentane]]
–	–	69%	CC1(C)CCN2CCNCc3ccc(F)c1c32 [Example 22, 9-Fluoro-8,8-dimethyl-2,3,4,6,7,8-hexahydro-1H-[1,4]diazepino[6,7,1-ij]quinoline]
–	20 to 200 nM	59%	c1cc2c3c(c1)C1(CCN3CCNC2)CC1 [Example 47, 1,2,3,4,6,7-Hexahydrospiro[[1,4]diazepino[6,7,1-ij]quinoline-8,1′-cyclopropane]]
–	20 to 200 nM	105%	CC1CNCc2cccc3c2N1CCC31CC1 (stereo not drawn) [Example 48, 4-Methyl-1,2,3,4,6,7-hexahydrospiro[[1,4]diazepino[6,7,1-ij]quinoline-8,1′-cyclopropane]]
–	20 to 200 nM	51%	Cc1ccc2c3c1N1CCCC1CN3CCNC2 (stereo not drawn) [Example 59, 1-Methyl-5,6,7,9,9a,10,11,12-octahydro-4H-[1,4]diazepino[1,7,6-de]pyrrolo[1,2-a]quinoxaline, trifluoroacetic acid]
–	20 to 200 nM	76%	c1cc2c3c(c1)N1CC4CC4C1CN3CCNC2 (stereo not drawn) [Example 68, 4,5,6,7,9,9a,9b,10,10a,11-Decahydrocyclopropa[3,4]pyrrolo[1,2-a][1,4]diazepino[1,7,6-de]quinoxaline]
–	200 to 1000 nM	54%	CCN1CCN2CCNCc3cccc1c32 [Example 69, 1-Ethyl-2,3,5,6,7,8-hexahydro-1H-[1,4]diazepino[1,7,6-de]quinoxaline]

From patent US10118926B2, “Tricyclic quinoline and quinoxaline derivatives” (AbbVie Deutschland GmbH & Co. KG, priority 2012, dated 2018)
